Source: patent US20190300832A1, “METHOD AND KIT FOR EXPANDING CIRCULATING TUMOR CELLS IN VITRO” (Taipei Medical University, priority 2018, published 2019)

How the values were obtained:
small cell lung cancer = experiment: Clinical treatment outcome of the patients the circulating tumor cells were taken from; type: in vivo, human; conditions: treated clinically
Source text: As can be known from FIG. 54, in the presence of cisplatin, etoposide, and Topotecan, the survival rate of the circulating tumor cells 21 derived the blood of the first patient is more than 85%, and there is no significant decrease compared with the control group Ctrl.
As can be known from FIG. 55, in the presence of cisplatin and topotecan, the survival rate of the expanded circulating tumor cells 21 from the second patient is less than 20%, and there is significant decrease compared with the control group Ctrl. […] In combination with the outcome where the patient is treated with cisplatin, etoposide, and Topotecan clinically, it can be further confirmed that the cisplatin and topotecan respond well to small cell lung cancer in the second patients, that is, have therapeutic effect.

[1] = test system: circulating tumor cells derived from patients with small cell lung cancer; experiment: CellTiter Luminescent cell viability of expanded circulating tumor cells treated with drugs; type: cell-based, human; conditions: expanded circulating tumor cells from the second small cell lung cancer patient; FIG. 55; result in words
Experimental: In some embodiments, the preparation of the cell solution can be performed as follows. 5 ml of blood is sampled respectively patients having breast cancer, pancreatic cancer, and small cell lung cancer. 15 ml of Ficoll-Paque is added to a Leucosep™ centrifuge tube and centrifuged. The blood is diluted in phosphate buffered saline (PBS) and transferred to the Leucosep™ centrifuge tube, followed by centrifugation. After centrifugation, the supernatant in the Leucosep™ centrifuge tube is removed, and the retained lower solution is a monocyte phase. A circulating tumor cell enriched antibody mixture (RosetteSep™ CTC Enrichment Cocktail Containing AntiCD56) is added to the monocyte phase, and mixed at room temperature. After mixing, a PBS buffer containing 2% (v/v) Fetal Bovine Serum (FSB) is added and mixed to give a monocyte solution. Also, the monocyte solution is added to Ficoll-Paque and centrifuged at room temperature. […]
According to the above procedure, the circulating tumor cells 21 are isolated from the blood of two patients with small cell lung cancer and cultured. […] The cell viability was measured by CellTiter Luminescent cell viability and the survival rate is calculated by the following formula:
Cell survival rate (%)=(luminescence density in the treated group/luminescence density in the control group)×100%. […]

Compound	Clinical therapeutic effect on small cell lung cancer (small cell lung cancer; first patient)	Clinical therapeutic effect on small cell lung cancer (small cell lung cancer; second patient)	Cell survival rate compared with control group [1]
CC[C@@]1(O)C(=O)OCc2c1cc1n(c2=O)Cc2cc3c(CN(C)C)c(O)ccc3nc2-1 [Topotecan]	no significant therapeutic effect	respond well	
N.N.[Cl][Pt][Cl] [cisplatin]	no significant therapeutic effect	respond well	
COc1cc([C@@H]2c3cc4c(cc3[C@@H](O[C@@H]3O[C@@H]5CO[C@@H](C)O[C@H]5[C@H](O)[C@H]3O)[C@H]3COC(=O)[C@H]23)OCO4)cc(OC)c1O [etoposide]	no significant therapeutic effect		lower than the control group Ctrl
